Like-named read-outs stand apart in the source and are kept apart here.
Assays:
[1] = test system: Pseudomonas aeruginosa (ATCC 4676); experiment: Minimum Inhibitory Concentration, micro-dilution broth; format: cell-based; conditions: for Minimum Inhibitory Concentration P. aeruginosa: Drug sensitive bacteria
Method: (§1) Microorganisms and Culture Conditions: Bacterial strains, S. aureus (MTCC 737) and E. coli (MTCC 443) are purchased from MTCC (Chandigarh, India). MRSA (ATCC 33591), Pseudomonas aeruginosa (ATCC 4676), […]-lactamase producing and drug-resistant Klebsiella pneumonia (ATCC700603), Enterococcus faecium (ATCC 19634) and vancomycin resistant Enterococcus faecium (ATCC 51559) are obtained from ATCC (Rockville, Md., USA).
(§2) E. coli is cultured in Luria Bertani broth (10 g of tryptone, 5 g of yeast extract, and 10 g of NaCl in 1000 mL of sterile distilled water (pH −7) while S. aureus, Pseudomonas aeruginosa (ATCC 4676) and MRSA are grown in Yeast-dextrose broth (1 g of beef extract, 2 g of yeast extract, 5 g of peptone and 5 g of NaCl in 1000 mL of sterile distilled water). For all Enterococcus faecium, Brain Heart Infusion broth (BHI) is used. For solid media 5% agar was used along with above mentioned composition. K. pneumonia was grown in nutrient media (3 g of beef extract and 5 g of peptone in 1000 mL of sterile distilled water). The bacterial samples were freeze dried and stored at −80° C. 5 μl of these stocks were added to 3 mL of the nutrient broth and the culture was grown for 6 h at 37° C. prior to the experiments.
(§3) Antibacterial activity is reported as Minimum Inhibitory Concentration (MIC), i.e. the lowest concentration of the antimicrobial agent that will inhibit the growth of a microorganism after overnight incubation. Water-soluble ACK, NCK and BCK series of compounds are assayed in a modified micro-dilution broth format. Stock solutions are made by serially diluting the compounds using autoclaved Millipore water. Bacteria, to be tested are grown for about 6 hrs in the suitable media containing ˜10^9 cfu/mL (determined through dilution plate technique by spread plate method), which is then diluted to 10^5 cfu/mL using nutrient media. 50 μL of serially diluted compound is added to a 96 well plate containing 150 μL bacterial solutions. Two controls are made; one containing 150 μL of media and 50 μL of compound and the other containing 200 μL of bacterial solution. […] MIC value is determined by taking the average of triplicate O.D. values for each concentration and plotting it against concentration using Origin Pro 8.0 software. The data is then subjected to sigmoidal fitting. From the curve, MIC value is determined, as the point in the curve where the O.D. is similar to that of control having no bacteria. The MIC values and errors of independent experiments are reported as average and standard deviation of triplicates.

[2] = test system: vancomycin resistant Enterococcus faecium (ATCC 51559); experiment: as above; format: cell-based; conditions: for Minimum Inhibitory Concentration VRE: Drug resistant bacteria
Method: as §1, §2, §3

[3] = test system: drug-resistant Klebsiella pneumonia (ATCC700603); experiment: as above; format: cell-based; conditions: for Minimum Inhibitory Concentration K. pneumonia: Drug resistant bacteria
Method: as §1, §2, §3

[4] = test system: Enterococcus faecium (ATCC 19634); experiment: as above; format: cell-based; conditions: for Minimum Inhibitory Concentration E. faecium: Drug sensitive bacteria
Method: as §1, §2, §3

human RBCs = experiment: Haemolytic activity (HC50); format: cell-based
Method: Erythrocytes are isolated from freshly drawn, heparinized human blood and re-suspended to 5 vol % in PBS (pH 7.4). In a 96-well microtiter plate, 150 μl of erythrocyte suspension is added to 50 μl of serially diluted compound. Two controls are made, one without compound and other with 50 μl of 1 vol % solution of Triton X-100. The plate is incubated for about 1 hr at a temperature of about 37° C. The plate is then centrifuged at 3,500 rpm for about 5 min, 100 μl of the supernatant from each well is transferred to a fresh microtiter plate, and absorbance at 540 nm is measured. Percentage of hemolysis is determined as (A−A0)/(Atotal−A0)×100, where A is the absorbance of the test well, A0 the absorbance of the negative controls (without compound), and A total the absorbance of 100% hemolysis wells (with Triton X-100), when absorbance is read at 540 nm.
Toxicity studies of the compounds are carried out on freshly drawn human RBCs. Toxicity of the antimicrobial compounds of the present disclosure is defined by their HC50 values illustrated in Table 3, i.e. the concentration of compound at which 50% of the blood cells are lysed. Haemolytic studies conducted herein illustrates that the antimicrobial compounds provided by the instant disclosure are selective towards drug sensitive bacteria and drug resistant bacteria over human RBCs, thus establishing the non-toxicity of the present compounds.

MRSA (ATCC 33591) = experiment: Minimum Inhibitory Concentration, micro-dilution broth; format: cell-based, Methicillin resistant S. aureus; conditions: for Minimum Inhibitory Concentration MRSA: Drug resistant bacteria
Method: as §1, §2, §3

E. coli (MTCC 443) = experiment: as above; format: cell-based, Escherichia coli; conditions: for Minimum Inhibitory Concentration E. coli: Drug sensitive bacteria
Method: as §1, §2, §3

bacteria = experiment: Minimum inhibitory concentration, bacterium not given; format: cell-based
Method: as §3

S. aureus (MTCC 737) = experiment: Minimum Inhibitory Concentration, micro-dilution broth; format: cell-based, Staphylococcus aureus; conditions: for Minimum Inhibitory Concentration S. aureus: Drug sensitive bacteria
Method: as §1, §2, §3

[5] = concentration at which 50% of the blood cells are lysed, human RBCs

Compound	Minimum Inhibitory Concentration P. aeruginosa [1]	Minimum Inhibitory Concentration VRE [2]	Minimum Inhibitory Concentration K. pneumonia [3]	MIC value against E. faecium [4]	Minimum Inhibitory Concentration E. faecium [4]	HC50 (human RBCs)	HC50 values (human RBCs)	MIC value against methicillin-resistant S. aureus (MRSA (ATCC 33591))	Minimum Inhibitory Concentration MRSA (MRSA (ATCC 33591))	Minimum Inhibitory Concentration E. coli (E. coli (MTCC 443))	active concentration against all bacteria (bacteria)	Minimum Inhibitory Concentration S. aureus (S. aureus (MTCC 737))	MIC value against P. aeruginosa [1]	MIC value against vancomycin-resistant E. faecium [2]	MIC value against K. pneumonia [3]	HC50 (human RBCs; [5])	MIC value against E. coli (E. coli (MTCC 443))	MIC value against S. aureus (S. aureus (MTCC 737))
Lys-N-octylaminodecane [Dec-CK-8]	4.2 µg/mL	3.3 µg/mL	5.6 µg/mL	3 µg/mL	3 µg/mL	82 µg/mL	82 µg/mL	3 µg/mL	3 µg/mL	3.1 µg/mL	below 5.6 μg/ml	3.1 µg/mL	–	–	–	–	–	–
CCCCCCCCCCCCCCN(Cc1ccccc1)C(=O)C(N)CCCCN.O=C(O)C(F)(F)F (stereo not drawn) [BCK-14, Lys-N-tetradecyl-1-Aminomethylbenzene trifluoroacetates]	2.8 µg/mL	2.5 µg/mL	4 µg/mL	~2 µg/mL	2 µg/mL	–	–	~2.5 µg/mL	2.5 µg/mL	3.1 µg/mL	–	3.1 µg/mL	~2.8 µg/mL	~2.5 µg/mL	~4 µg/mL	50 µg/mL	~3.1 µg/mL	~3.1 µg/mL
CCCCCCCCCCN(Cc1cccc2ccccc12)C(=O)[C@@H](N)CCCCN.O=C(O)C(F)(F)F [NCK-10, Lys-N-decyl-1-Aminomethylnaphthalene trifluoroacetate]	3 µg/mL	1.6 µg/mL	5.8 µg/mL	~3.5 µg/mL	3.5 µg/mL	–	–	~2.6 µg/mL	2.6 µg/mL	4 µg/mL	–	2.5 µg/mL	~3 µg/mL	~1.6 µg/mL	~5.8 µg/mL	54 µg/mL	~4 µg/mL	~2.5 µg/mL
CCCCCCN(Cc1c2ccccc2c(Cl)c2ccccc12)C(=O)C(N)CCCCN.O=C(O)C(F)(F)F (stereo not drawn) [ACK-6, Lys-N-hexyl-10-Aminomethyl-9-chloroanthracene trifluoroacetate]	1.6 µg/mL	5.2 µg/mL	16 µg/mL	~3.3 µg/mL	3.3 µg/mL	–	–	~2.8 µg/mL	2.8 µg/mL	3.5 µg/mL	–	2.4 µg/mL	~1.6 µg/mL	~5.2 µg/mL	~16 µg/mL	82 µg/mL	~3.5 µg/mL	~2.4 µg/mL

Reference: patent publication US9783490B2, “Antimicrobial compounds, their synthesis and applications thereof” (The Secretary of State for Health, priority 2012, dated 2017)
